Results taken from patent US10183047B2, “Chromium-containing compositions in combination with Phyllanthus emblica and shilajit having synergistic effects for improving endothelial function and cardiovascular health” (Natreon, Inc., priority 2014, dated 2019).

How the values were obtained:
Assay type in all cases: in vivo, human
endothelial function = experiment: Reflection index (RI), salbutamol challenge test, metabolic syndrome subjects; settings: for RI: MS, 400 mcg; for Absolute change in RI / RI, % Post Tt / RI, % Pre Tt: metabolic syndrome subjects (Example 4), chromium products 400 mcg; for Absolute change in RI / RI, % Post Tt: after 12 weeks of treatment; for RI, % Pre Tt: pre-treatment
Text: A salbutamol (albuterol) challenge test employing digital volume plethysmography was used to assess endothelial function as reported by Chowienczyk et al., “Photoplethysmographic assessment of pulse wave reflection: blunted response to endothelium dependant beta 2-adrenergic vasodilation in type 2 diabetes mellitus,” J. Am. Coll. Cardiol. (1999 December) 34(7):2007-14; and Naidu, et al., “Comparison of two β2 adrenoceptor agonists by different routes of administration to assess human endothelial function,” Indian J. Pharmacol. (2007) 39:168-9. The patients were examined in supine position after 5 minutes of rest. A digital volume pulse (DVP) was obtained using a photo plethysmograph (Pulse Trace PCA2, PT200, Micro Medical, Gallingham, Kent, UK) transmitting infrared light at 940 nm, placed on the index finger of the right hand. The signal from the plethysmograph was digitized using a 12 bit analogue to digital converter with a sampling frequency of 100 Hz. DVP waveforms were recorded over 20 second period and the height of the late systolic/early diastolic portion of the DVP was expressed as a percentage of the amplitude of the DVP to yield the reflection index (RI), per the procedure described in detail by Millasseau et al., “Determination of age related increases in large artery stiffness by digital pulse contour analysis,” Clinical Science (2002) 103: 371-377. Three DVP recordings were taken, and measurements of reflection index (RI) were calculated and the mean value was determined. Patients were then administered 400 μg of salbutamol by inhalation. After 15 minutes three measurements of RI were obtained again and the difference in mean RI before and after administration of salbutamol was used for assessing endothelial function. A change of ≤6% in RI post-salbutamol was considered as endothelial dysfunction.
(§1) Patients included in the study, were of either gender, aged 30-68 years, having endothelial dysfunction defined as ≤6% change in reflection index (RI) on post salbutamol challenge test and central obesity as defined by The International Diabetes Federation guidelines, dated 2006, and any two of the following conditions:
(§2) After screening, all the eligible subjects were randomized to receive either one of the three treatments orally for duration of 12 weeks: group 1—one capsule of Crominex®3+ 200 mcg once daily; group 2—one capsule 400 mcg once daily; group 3—one capsule of Placebo once daily.
(§3) Subjects were reviewed for follow up at 4 weeks, 8 and 12 weeks of therapy. At each visit they were evaluated for efficacy and safety. Pharmacodynamic evaluation for endothelial function was conducted at baseline and end of treatment. Blood samples were collected for evaluation of biomarkers before and at end of treatment. Safety lab investigations for hematological, hepatic and renal biochemical parameters were conducted before and at the end of the study and also as and when required (in case of any adverse drug reaction (ADR)). Subjects were enquired for the presence of ADR and the same was recorded in the case report form. Compliance to therapy was assessed by pill count method.
Assessment of endothelial function, biomarkers, safety parameters and primary and secondary efficacy parameters and data analysis were performed as described under the study with type 2 diabetic subjects in Example 1.
(§4) When the results with Crominex® 3+ in the above two examples were highly significant, especially with the 400 mcg once daily dose in type 2 diabetics, two more clinical studies (EXAMPLES 3 & 4) were conducted at the same institute, following the same methodology as described earlier, on the individual components of Crominex® 3+, i.e., chromium chloride and Phyllanthus emblica+Shilajit, and other chromium supplements available in the market, i.e., chromium picolinate, chromium polynicotinate and chromium dinicocysteinate, in type 2 diabetics as well as in subjects with metabolic syndrome symptoms.

glutathione (GSH) = experiment: Glutathione level, spectrophotometric, type 2 diabetics; settings: for GSH: DM, 400 mcg; for Mean percentage change in GSH / GSH Post Tt / GSH Pre Tt: type 2 diabetics (Example 3), chromium products 400 mcg; for Mean percentage change in GSH: 12 week treatment; for GSH Post Tt: post-treatment, 12 weeks; for GSH Pre Tt: pre-treatment
Method: (§5) The present clinical study is a prospective, randomized, double blind, placebo-controlled study. Patients of either sex, aged 30-65 years, fasting plasma glucose of 110-126 mg/dl, a glycosylated hemoglobin (HbA1c) between 6.5% and 8% and taking stable dose of anti-diabetic treatment (metformin 1500-2000 mg/day) for the past 8 weeks prior to the screening visit; and having endothelial dysfunction defined as ≤6% change in reflection index (RI) on post salbutamol challenge test were included in the study. Patients with severe uncontrolled hyperglyceamia, uncontrolled hypertension, cardiac arrhythmia, impaired hepatic or renal function, history of malignancy or stroke, smoking, chronic alcoholism, any other serious disease requiring active treatment and treatment with any other herbal supplements, were excluded from the study.
(§6) After screening, all the eligible subjects were randomized to receive either one of the three treatments orally for duration of 12 weeks—Group1—one capsule of Crominex®3+, 200 mcg once daily, Group 2—one capsule Crominex®3+, 400 mcg once daily; Group 3—one capsule of placebo once daily.
as §3, with “Subjects were required for follow” for “Subjects were reviewed for follow”, “up at 4, 8 and” for “up at 4 weeks, 8 and”, “conducted at every visit. Blood samples” for “conducted at baseline and end of treatment. Blood samples”, “and at the end of” for “and at end of”, “drug reaction (ADR). Subjects were” for “drug reaction (ADR)). Subjects were”
(§7) Nitric oxide, MDA, Glutathione and levels were estimated spectrophotometrically as follows. Malondialdehyde (MDA) levels were determined as described in Vidyasagar, et al., “Oxidative stress and antioxidant status in acute organophosphorous insecticide poisoning,” Indian J. Pharmacol. (April 2004) 36(2): 76-79. Glutathione levels were determined as described in G. L. Ellman, Arch. Biochem. Biophys. (1959) 82: 70-77 (original determination). Nitric oxide levels were estimated spectrophotometrically as described in Miranda, et al., “A Rapid, Simple Spectrophotometric Method for Simultaneous Detection of Nitrate and Nitrite,” NITRIC OXIDE: Biology and Chemistry (2001) Vol. 5, No. 1, pp. 62-71. hsCRP (high sensitivity C-reactive protein) was determined by ELISA method.
as §4

fasting plasma glucose = experiment: Fasting plasma glucose, metabolic syndrome subjects; settings: for Fasting Glucose: MS, 400 mcg; for Fasting Plasma Glucose Post Tt / Fasting Plasma Glucose Pre Tt: metabolic syndrome subjects (Example 4), chromium products 400 mcg; for Fasting Plasma Glucose Post Tt: after 12 weeks of treatment; for Fasting Plasma Glucose Pre Tt: pre-treatment
Text: as §1, §2, §3, §4

[1] = system: high sensitivity C-reactive protein (hsCRP); experiment: hsCRP by ELISA, type 2 diabetics; settings: for hsCRP: DM, 400 mcg; for Mean percentage change in hsCRP / hsCRP Post Tt / hsCRP Pre Tt: type 2 diabetics (Example 3), chromium products 400 mcg; for Mean percentage change in hsCRP: 12 week treatment; for hsCRP Post Tt: post-treatment, 12 weeks; for hsCRP Pre Tt: pre-treatment
Method: as §5, §6
as §3, with “Subjects were required for follow” for “Subjects were reviewed for follow”, “up at 4, 8 and” for “up at 4 weeks, 8 and”, “conducted at every visit. Blood samples” for “conducted at baseline and end of treatment. Blood samples”, “and at the end of” for “and at end of”, “drug reaction (ADR). Subjects were” for “drug reaction (ADR)). Subjects were”
as §7, §4

[2] = system: Glycosylated Hemoglobin A1c (HbA1c); experiment: Glycosylated hemoglobin A1c, type 2 diabetics; settings: for HbA1c (Abs.): DM, 400 mcg, absolute change; for Absolute change in HbA1c / HbA1c Post Tt / HbA1c Pre Tt: type 2 diabetics (Example 3), chromium products 400 mcg; for Absolute change in HbA1c: after 12 weeks treatment; for HbA1c Post Tt: post-treatment, 12 weeks; for HbA1c Pre Tt: pre-treatment
Method: as §5, §6
as §3, with “Subjects were required for follow” for “Subjects were reviewed for follow”, “up at 4, 8 and” for “up at 4 weeks, 8 and”, “conducted at every visit. Blood samples” for “conducted at baseline and end of treatment. Blood samples”, “and at the end of” for “and at end of”, “drug reaction (ADR). Subjects were” for “drug reaction (ADR)). Subjects were”
All the subjects had undergone complete physical examination, safety lab evaluations at baseline and at the end of the treatment. Samples were collected after an overnight fast of 12 hrs after the last dose of medication for determination of hemoglobin, glycosylated hemoglobin (HbA1c), blood urea, serum creatinine, liver function, lipid profile (Total cholesterol, High density lipoprotein cholesterol (HDL-C), low density lipoprotein cholesterol (LDL-C) using appropriate standard techniques.
as §4

In the case of `O.O.O.O.O.O.[Cl][Cr]([Cl])[Cl]` [Chromium chloride, Chromium chloride (CrCl3.6H2O)], the RI (endothelial function) is reported as −0.1%, the “Absolute change in RI” value (endothelial function) is reported as −0.10 ± 1.34 #@ % and the “RI, % Post Tt” value (endothelial function) is reported as −3.43 ± 1.49 NS %. For the same compound, the “RI, % Pre Tt” value (endothelial function) was −3.06 ± 1.98%, the GSH (glutathione (GSH)) was 4.22% and the “Mean percentage change in GSH” value (glutathione (GSH)) was 4.22 ± 0.64 #$NS %. The “GSH Post Tt” value (glutathione (GSH)) was 527.08 ± 16.98 μM/L, the “GSH Pre Tt” value (glutathione (GSH)) was 505.73 ± 16.66 μM/L and the “Fasting Glucose” value (fasting plasma glucose) was −2.7%. For the same compound, the “Fasting Plasma Glucose Post Tt” value (fasting plasma glucose) was 101.32 ± 16.51 NS, the “Fasting Plasma Glucose Pre Tt” value (fasting plasma glucose) was 104.16 ± 14.92 and the hsCRP [1] was −9.92%. The “Mean percentage change in hsCRP” value [1] was −9.92 ± 3.86 #$NS %, the “hsCRP Post Tt” value [1] was 2.46 ± 0.55 mg/L and the “hsCRP Pre Tt” value [1] was 2.72 ± 0.53 mg/L. For the same compound, the “HbA1c (Abs.)” value [2] was −0.02, the “Absolute change in HbA1c” value [2] was −0.02 ± 0.10 #NS % and the “HbA1c Post Tt” value [2] was 6.89 ± 0.16 NS %. For the same compound, the “HbA1c Pre Tt” value [2] was 6.91 ± 0.16%.

For chromium dinicocysteinate, the RI (endothelial function) was −0.98%, the “Absolute change in RI” value (endothelial function) was −0.98 ± 0.76 #@NS % and the “RI, % Post Tt” value (endothelial function) was −4.58 ± 0.89 @ %. For the same compound, the “RI, % Pre Tt” value (endothelial function) was −3.55 ± 1.09 ^ %, the GSH (glutathione (GSH)) was 5.77% and the “Mean percentage change in GSH” value (glutathione (GSH)) was 5.77 ± 1.47 #$NS %. The “GSH Post Tt” value (glutathione (GSH)) was 563.66 ± 11.04 μM/L, the “GSH Pre Tt” value (glutathione (GSH)) was 532.95 ± 10.63 μM/L and the “Fasting Glucose” value (fasting plasma glucose) was −2.18%. The “Fasting Plasma Glucose Post Tt” value (fasting plasma glucose) was 99.50 ± 17.60 NS, the “Fasting Plasma Glucose Pre Tt” value (fasting plasma glucose) was 101.72 ± 21.41 and the hsCRP [1] was −8.61%. For the same compound, the “Mean percentage change in hsCRP” value [1] was −8.61 ± 12.40 #@NS %, the “hsCRP Post Tt” value [1] was 2.56 ± 0.58 @ mg/L and the “hsCRP Pre Tt” value [1] was 2.79 ± 0.53 mg/L. The “HbA1c (Abs.)” value [2] was −0.01, the “Absolute change in HbA1c” value [2] was −0.01 ± 0.07 #NS % and the “HbA1c Post Tt” value [2] was 7.10 ± 0.08 NS %. For the same compound, the “HbA1c Pre Tt” value [2] was 7.11 ± 0.08%.

With chromium picolinate the RI (endothelial function) was −3.25%, the “Absolute change in RI” value (endothelial function) was −3.25 ± 0.98 #@NS % and the “RI, % Post Tt” value (endothelial function) was −6.45 ± 0.40 %. For the same compound, the GSH (glutathione (GSH)) was 7.2%, the “Mean percentage change in GSH” value (glutathione (GSH)) was 7.20 ± 0.82 #@NS % and the “GSH Post Tt” value (glutathione (GSH)) was 535.96 ± 31.89 μM/L. The “GSH Pre Tt” value (glutathione (GSH)) was 499.99 ± 30.23 μM/L, the “Fasting Glucose” value (fasting plasma glucose) was −4.27% and the “Fasting Plasma Glucose Post Tt” value (fasting plasma glucose) was 96.63 ± 13.11 @. The “Fasting Plasma Glucose Pre Tt” value (fasting plasma glucose) was 100.95 ± 14.05 ^, the hsCRP [1] was −18.9% and the “Mean percentage change in hsCRP” value [1] was −18.90 ± 7.04@$NS %. The “hsCRP Post Tt” value [1] was 2.22 ± 0.64 mg/L, the “hsCRP Pre Tt” value [1] was 2.70 ± 0.63 mg/L and the “HbA1c (Abs.)” value [2] was −0.02. For the same compound, the “Absolute change in HbA1c” value [2] was −0.02 ± 0.08 #NS %, the “HbA1c Post Tt” value [2] was 7.03 ± 0.15 NS % and the “HbA1c Pre Tt” value [2] was 7.05 ± 0.11%.

With chromium polynicotinate the RI (endothelial function) was −1.51%, the “Absolute change in RI” value (endothelial function) was −1.51 ± 1.78 #@NS % and the “RI, % Post Tt” value (endothelial function) was −3.85 ± 0.86 @ %. For the same compound, the “RI, % Pre Tt” value (endothelial function) was −2.39 ± 2.18 ^ %, the GSH (glutathione (GSH)) was 5.3% and the “Mean percentage change in GSH” value (glutathione (GSH)) was 5.30 ± 1.04 #@NS %. The “GSH Post Tt” value (glutathione (GSH)) was 534.54 ± 32.56 μM/L, the “GSH Pre Tt” value (glutathione (GSH)) was 507.72 ± 31.73 μM/L and the “Fasting Glucose” value (fasting plasma glucose) was −4.14%. For the same compound, the “Fasting Plasma Glucose Post Tt” value (fasting plasma glucose) was 95.95 ± 13.32 NS, the “Fasting Plasma Glucose Pre Tt” value (fasting plasma glucose) was 100.10 ± 14.00 and the hsCRP [1] was −11.45%. The “Mean percentage change in hsCRP” value [1] was −11.45 ± 12.28 #NS %, the “hsCRP Post Tt” value [1] was 2.43 ± 0.49 mg/L and the “hsCRP Pre Tt” value [1] was 2.75 ± 0.47 mg/L. The “HbA1c (Abs.)” value [2] was −0.01, the “Absolute change in HbA1c” value [2] was 0.01 ± 0.10 #NS % and the “HbA1c Post Tt” value [2] was 7.09 ± 0.13 NS %. The “HbA1c Pre Tt” value [2] was 7.08 ± 0.08%.
